Assay results as given in PubChem BioAssay AID1259407 (Chemical Carcinogenesis Research Information System (CCRIS), 2018).
The source made the active and inactive calls. No rule for the calls is given here.

Test system: CCRIS mutagenicity, Ames/micronucleus/aberration tests
Test: CCRIS mutagenicity studies
[1] = Test System: AMES SALMONELLA TYPHIMURIUM, Strain/Indicator: TA98, Metabolic Activation: NONE, Method: PREINCUBATION
[2] = Test System: AMES SALMONELLA TYPHIMURIUM, Strain/Indicator: TA98, Metabolic Activation: NONE, Method: STANDARD PLATE
[3] = Test System: AMES SALMONELLA TYPHIMURIUM, Strain/Indicator: TA100, Metabolic Activation: NONE, Method: PREINCUBATION
[4] = Test System: AMES SALMONELLA TYPHIMURIUM, Strain/Indicator: TA100, Metabolic Activation: NONE, Method: STANDARD PLATE
[5] = Test System: AMES SALMONELLA TYPHIMURIUM, Strain/Indicator: TA98, Metabolic Activation: RAT, LIVER, S-9, AROCLOR 1254, Method: STANDARD PLATE
[6] = Test System: AMES SALMONELLA TYPHIMURIUM, Strain/Indicator: TA100, Metabolic Activation: RAT, LIVER, S-9, AROCLOR 1254, Method: STANDARD PLATE
[7] = Test System: AMES SALMONELLA TYPHIMURIUM, Strain/Indicator: TA1538, Metabolic Activation: NONE, Method: STANDARD PLATE
[8] = Test System: AMES SALMONELLA TYPHIMURIUM, Strain/Indicator: TA1538, Metabolic Activation: RAT, LIVER, S-9, AROCLOR 1254, Method: STANDARD PLATE

SMILES: CCCCC1C(=O)N(c2ccccc2)N(c2ccc(O)cc2)C1=O (stereo unspecified)
- mutagenic call (Test System: AMES SALMONELLA TYPHIMURIUM, Strain/Indicator: TA97A, Metabolic Activation: NONE, Method: STANDARD PLATE): inactive; negative
- mutagenic call (Test System: AMES SALMONELLA TYPHIMURIUM, Strain/Indicator: TA97A, Metabolic Activation: RAT LIVER S-9, PHENOBARBITAL, Method: STANDARD PLATE): inactive; negative
- mutagenic call (Test System: AMES SALMONELLA TYPHIMURIUM, Strain/Indicator: TA98, Metabolic Activation: GUINEA PIG, LIVER, S-9, PCB, Method: PREINCUBATION): inactive; negative
- mutagenic call (Test System: AMES SALMONELLA TYPHIMURIUM, Strain/Indicator: TA98, Metabolic Activation: HAMSTER, LIVER, S-9, PCB, Method: PREINCUBATION): inactive; negative
- mutagenic call (Test System: AMES SALMONELLA TYPHIMURIUM, Strain/Indicator: TA98, Metabolic Activation: MOUSE, LIVER, S-9, PCB, Method: PREINCUBATION): inactive; negative
- mutagenic call [1]: inactive; negative
- mutagenic call [2]: inactive; negative
- mutagenic call (Test System: AMES SALMONELLA TYPHIMURIUM, Strain/Indicator: TA98, Metabolic Activation: RAT LIVER S-9, PHENOBARBITAL, Method: STANDARD PLATE): inactive; negative
- mutagenic call (Test System: AMES SALMONELLA TYPHIMURIUM, Strain/Indicator: TA98, Metabolic Activation: RAT, LIVER, S-9, PCB, Method: PREINCUBATION): inactive; negative
- mutagenic call (Test System: AMES SALMONELLA TYPHIMURIUM, Strain/Indicator: TA100, Metabolic Activation: GUINEA PIG, LIVER, S-9, PCB, Method: PREINCUBATION): inactive; negative
- mutagenic call (Test System: AMES SALMONELLA TYPHIMURIUM, Strain/Indicator: TA100, Metabolic Activation: HAMSTER, LIVER, S-9, PCB, Method: PREINCUBATION): inactive; negative
- mutagenic call (Test System: AMES SALMONELLA TYPHIMURIUM, Strain/Indicator: TA100, Metabolic Activation: MOUSE, LIVER, S-9, PCB, Method: PREINCUBATION): inactive; negative
- mutagenic call [3]: inactive; negative
- mutagenic call [4]: inactive; negative
- mutagenic call (Test System: AMES SALMONELLA TYPHIMURIUM, Strain/Indicator: TA100, Metabolic Activation: RAT LIVER S-9 PHENOBARBITAL, Method: STANDARD PLATE): inactive; negative
- mutagenic call (Test System: AMES SALMONELLA TYPHIMURIUM, Strain/Indicator: TA100, Metabolic Activation: RAT, LIVER, S-9, PCB, Method: PREINCUBATION): active; positive
- mutagenic call (Test System: AMES SALMONELLA TYPHIMURIUM, Strain/Indicator: TA102, Metabolic Activation: NONE, Method: STANDARD PLATE): inactive; negative
- mutagenic call (Test System: AMES SALMONELLA TYPHIMURIUM, Strain/Indicator: TA102, Metabolic Activation: RAT LIVER S-9, PHENOBARBITAL, Method: STANDARD PLATE): inactive; negative

SMILES: C[C@]12CCC(=O)C=C1C=C[C@@H]1[C@@H]2CC[C@@]2(C)[C@H]1CC[C@@]2(O)CCC(=O)O
- mutagenic call (End Point: IN VITRO MICRONUCLEUS, Test System: HUMAN PERIPHERAL LYMPHOCYTES, Metabolic Activation: NONE): inactive; negative
- mutagenic call (End Point: IN VITRO MICRONUCLEUS, Test System: HUMAN PRIMARY HEPATOCYTES (FEMALE), Metabolic Activation: NONE): inactive; negative
- mutagenic call (End Point: IN VITRO MICRONUCLEUS, Test System: RAT PRIMARY HEPATOCYTES (MALE/FEMALE), Metabolic Activation: NONE): active; positive

SMILES: COc1cc(N=Nc2ccccc2)ccc1N=Nc1c(S(=O)(=O)O)cc2ccc(N)cc2c1O
- mutagenic call [2]: inactive; negative
- mutagenic call [5]: active; positive
- mutagenic call [4]: inactive; negative
- mutagenic call [6]: active; positive
- mutagenic call [7]: inactive; negative
- mutagenic call [8]: active; positive

SMILES: O=[N+]([O-])c1cc2cccc([N+](=O)[O-])c2c2ccccc12
- mutagenic call (Test System: AMES SALMONELLA TYPHIMURIUM, Strain/Indicator: TA98(1,8-DNP6), Metabolic Activation: NONE, Method: STANDARD PLATE): active; positive
- mutagenic call (Test System: AMES SALMONELLA TYPHIMURIUM, Strain/Indicator: TA98(NR), Metabolic Activation: NONE, Method: STANDARD PLATE): active; positive
- mutagenic call [2]: active; positive
- mutagenic call [4]: active; positive
- mutagenic call (Test System: AMES SALMONELLA TYPHIMURIUM, Strain/Indicator: YG1021, Metabolic Activation: NONE, Method: STANDARD PLATE): active; positive
- mutagenic call (Test System: AMES SALMONELLA TYPHIMURIUM, Strain/Indicator: YG1024, Metabolic Activation: NONE, Method: STANDARD PLATE): active; positive
- mutagenic call (Test System: AMES SALMONELLA TYPHIMURIUM, Strain/Indicator: YG1026, Metabolic Activation: NONE, Method: STANDARD PLATE): active; positive
- mutagenic call (Test System: AMES SALMONELLA TYPHIMURIUM, Strain/Indicator: YG1029, Metabolic Activation: NONE, Method: STANDARD PLATE): active; positive

SMILES: [N-]=[N+]=Nc1ccc2c(Nc3ccc(NS(=O)(=O)CCCN)cc3)c3ccc(N=[N+]=[N-])cc3nc2c1
- mutagenic call (Test System: AMES SALMONELLA TYPHIMURIUM, Strain/Indicator: TA1537, Metabolic Activation: NONE, Method: STANDARD PLATE): active; positive

SMILES: O=[N+]([O-])c1ccc2c(c1)nc(/C=N/OCc1ccccc1[N+](=O)[O-])n2Cc1ccc(Cl)cc1Cl
- mutagenic call [2]: active; positive
- mutagenic call (Test System: AMES SALMONELLA TYPHIMURIUM, Strain/Indicator: TA98, Metabolic Activation: RAT, LIVER, S-9, PHENOBARBITAL AND BETA-NAPHTHOFLAVONE, Method: STANDARD PLATE): active; positive
- mutagenic call [4]: active; positive
- mutagenic call (Test System: AMES SALMONELLA TYPHIMURIUM, Strain/Indicator: TA100, Metabolic Activation: RAT, LIVER, S-9, PHENOBARBITAL AND BETA-NAPHTHOFLAVONE, Method: STANDARD PLATE): active; positive

SMILES: COc1cc(O)c2c(=O)c(-c3ccc(O)cc3)coc2c1
- mutagenic call (Test System: SYRIAN HAMSTER EMBRYO CELLS, Strain/Indicator: HPRT/6-THIOGUANINE, Metabolic Activation: NONE, Method: PLATE): inactive; negative

SMILES: C=CC(=O)OCCN(C)C
- mutagenic call (Test System: AMES SALMONELLA TYPHIMURIUM, Strain/Indicator: TA98, Metabolic Activation: HAMSTER, LIVER, S-9, AROCLOR 1254 (10%), Method: PREINCUBATION): inactive; negative
- mutagenic call [1]: inactive; negative
- mutagenic call (Test System: AMES SALMONELLA TYPHIMURIUM, Strain/Indicator: TA98, Metabolic Activation: RAT, LIVER, S-9, AROCLOR 1254 (10%), Method: PREINCUBATION): inactive; negative
- mutagenic call (Test System: AMES SALMONELLA TYPHIMURIUM, Strain/Indicator: TA100, Metabolic Activation: HAMSTER, LIVER, S-9, AROCLOR 1254 (10%), Method: PREINCUBATION): inactive; negative
- mutagenic call [3]: inactive; negative
- mutagenic call (Test System: AMES SALMONELLA TYPHIMURIUM, Strain/Indicator: TA100, Metabolic Activation: RAT, LIVER, S-9, AROCLOR 1254 (10%), Method: PREINCUBATION): inactive; negative
- mutagenic call (Test System: AMES SALMONELLA TYPHIMURIUM, Strain/Indicator: TA1535, Metabolic Activation: HAMSTER, LIVER, S-9, AROCLOR 1254 (10%), Method: PREINCUBATION): inactive; negative
- mutagenic call (Test System: AMES SALMONELLA TYPHIMURIUM, Strain/Indicator: TA1535, Metabolic Activation: NONE, Method: PREINCUBATION): inactive; negative
- mutagenic call (Test System: AMES SALMONELLA TYPHIMURIUM, Strain/Indicator: TA1535, Metabolic Activation: RAT, LIVER, S-9, AROCLOR 1254 (10%), Method: PREINCUBATION): inactive; negative
- mutagenic call (Test System: AMES SALMONELLA TYPHIMURIUM, Strain/Indicator: TA1537, Metabolic Activation: HAMSTER, LIVER, S-9, AROCLOR 1254 (10%), Method: PREINCUBATION): inactive; negative
- mutagenic call (Test System: AMES SALMONELLA TYPHIMURIUM, Strain/Indicator: TA1537, Metabolic Activation: NONE, Method: PREINCUBATION): inactive; negative
- mutagenic call (Test System: AMES SALMONELLA TYPHIMURIUM, Strain/Indicator: TA1537, Metabolic Activation: RAT, LIVER, S-9, AROCLOR 1254 (10%), Method: PREINCUBATION): inactive; negative

SMILES: CN(C)c1ccc(C(=C2C=CC(=[N+](C)C)C=C2)c2c(O)c(S(=O)(=O)[O-])cc3cc(S(=O)(=O)O)ccc23)cc1
- mutagenic call [2]: inactive; negative
- mutagenic call [5]: inactive; negative
- mutagenic call [4]: inactive; negative
- mutagenic call [6]: inactive; negative
- mutagenic call (Test System: AMES SALMONELLA TYPHIMURIUM, Strain/Indicator: TA1535, Metabolic Activation: NONE, Method: STANDARD PLATE): inactive; negative
- mutagenic call (Test System: AMES SALMONELLA TYPHIMURIUM, Strain/Indicator: TA1535, Metabolic Activation: RAT, LIVER, S-9, AROCLOR 1254, Method: STANDARD PLATE): inactive; negative
- mutagenic call [7]: inactive; negative
- mutagenic call [8]: inactive; negative
